Experimental data published in US6372963B1, “Transformation method for plants” (Aventis CropScience N.V., priority 1998, dated 2002).

Assays:
Assay type in all cases: cell-based
[1] = system: type I calli from the PHH corn line; assay: Agrobacterium-mediated transformation of plant-phenolic pre-treated type I callus from corn; conditions: for Approximate mean transformation frequency with pretreatment: 5 days on 100-200 μM acetosyringone; for PAT-positive plant lines: about 4000 pre-treated callus fragments
Text: Type I callus fragments were obtained essentially as described in WO 92/09696. Immature embryos from corn line (Pa91xH99)xH99 (PHH-line) were excised from the kernel 9-12 days after pollination, surface sterilized and plated on Mahi1VII medium for the induction of type I callus. Type I callus was subcultured on the same medium with one month intervals for about two to six months. Next, type I callus was finely cut in fragments with an average length of about 1.5 mm, and the resulting fragments were incubated-for 5 days on LSIDhy1.5VII substrate supplemented with 100-200 μM acetosyringone. The pre-induced callus pieces were collected and without further wounding, immersed in a suspension of the appropriate Agrobacterium strain for about 3 to about 20 minutes. The bacterial suspension was obtained in the following way: bacteria were grown for 3 to 6 days on MAG medium [minimal A medium (Jeffrey Miller, 1972) supplemented with 2 g/L glucose] or AB medium (Chilton et al., 1974). The bacteria were harvested, and resuspended in liquid LSI substrate supplemented with 100-200 μM acetosyringone, at a concentration of about 5×10^9 cells/ml.
After immersion in the bacterial suspension, the callus fragments were co-cultivated on LSIIDhy1.5XI medium, supplemented with 100-200 μM acetosyringone, at about 25° C. for 3 to 6 days (3 days for LBA-type strain, 6 days for EHA-type strain).
After co-cultivation, the tissue was transferred to Ahx1.5VIIp500ino1000ppT10 and cultured for3 to 4 weeks. Proliferating, phosphinotricin (PPT)-resistant calli were excised and subcultured at least twice, with 3 week subculture intervals on Mh1VIIp500ppT5. Embryogenic PPT-resistant calli were plated on regeneration medium (A37VIIp500 ppT2.), and the embryogenic tissue was subcultured twice, with 10 to 14 day intervals, on the same medium. Small plants were transferred to glass containers containing A6%VIIp500ppT2 substrate for further growth, and developing shoots were then transferred to half-strength MS medium supplemented with 1.5% sucrose to allow further shoot elongation as well as rooting. Plants were tested for phosphinothricin acetyl transferase (PAT) activity, and PAT-positive plants were transferred to the greenhouse. PAT-positive plants were tested for the presence of the transgene by Southern hybridization.
Type I callus fragments were obtained as described in Example I and incubated for 5 days on LSIDhy1.5VII substrate supplemented with 100 μM of acetosyringone, followed by co-cultivation with Agrobacterium strain A3532 and A3638. For strain A3532 only I PAT-positive plant was obtained, even with acetosyringone pretreatment (transformation frequency<0.1%). However, the presence of the functional virB promoter preceding the virB11 open reading frame on the T-DNA vector, improved the transformation efficiency (see Table I) at least almost ten times.
Type I callus fragments were obtained as described in Example 1 and incubated for 5 days on LSIDhy1.5VII substrate supplemented with 100 μM of the plant phenolic compounds of Table II. Approximately 200 pre-induced callus fragments were co-cultivated with Agrobacterium strain A3637 (or A3638).
Type I callus fragments were obtained as described in Example 1 and incubated for 5 days on LSIDhy1.5VII substrate supplemented with either 200 μM of acetosyringone or a combination of 100 μM acetosyringone and 100 μM p-hydroxybenzoic acid. About 250 callus pieces were co-cultivated with Agrobacterium strain A3533. Whereas 2 shoot-regenerating lines (comprising 1 PAT-positive line) were obtained on PPT containing media after pre-induction on acetosyringone (frequency about 1%), 7 shoot regenerating lines (comprising 5 PAT-positive lines) were obtained on PPT containing media after pre-induction on acetosyringone plus p-hydroxybenzoic acid (frequency about 3%).

[2] = system: type I calli obtained from corn plant line (Pa91xH99)xPa91 (PHP); assay: Agrobacterium co-cultivation of acetosyringone pre-treated type I calli, PHP line
type I callus from corn = assay: Transformation by electroporation of acetosyringone pre-treated type I callus from corn; conditions: 5 days on 100 μM acetosyringone
Description: Finely chopped pieces of calli, derived from type I callus and pre-incubated for 5 days on 100 μM acetosyringone-containing medium, as described in Example 1, were subjected without further wounding to electroporation as described in […]/09696. Briefly, about 50 callus pieces were resuspended in 100 μl EPM-KCl buffer and preplasmolyzed for 3 hr at room temperature. Next the callus pieces were washed in EPM+KCl buffer and transferred to an electrocuvette in EPM+KCl buffer. Plasmid DNA (10 μg of pDE110) was added, and the DNA was incubated with the callus fragments for about 1 hr at room temperature. Electroporation was carried out using standard conditions (1 pulse with initial field strength 375 V/cm from a 900 μF capacitor). The calli were never kept on ice. Phosphinotricin-resistant calli were selected and plants regenerated as described ([…]/09696). Phosphinotricin acetyl transferase activity was detected as described ([…]/09696).

[3] = system: type I calli obtained from corn plant line Pa91; assay: Agrobacterium co-cultivation of acetosyringone pre-treated type I calli, Pa91 line
[4] = 5 days on 100 μM compound, approximately 200 callus fragments, strain A3637 (or A3638)
[5] = strain A3533, about 250 callus pieces, 200 μM acetosyringone or 100 μM acetosyringone + 100 μM p-hydroxybenzoic acid, 5 days
[6] = electroporation of about 530 callus pieces

In the case of `O=C(O)c1ccc(O)cc1O` [2,4-dihydroxybenzoic acid, 2,4 dihydroxybenzoic acid], the “Number of PAT-positive lines” value [1, 4] is reported as 1 and the Transformation frequency [1, 4] is reported as 0.5%.

With `O=C(O)c1ccc(O)c(O)c1` [3,4-dihydroxybenzoic acid] the “Number of PAT-positive lines” value [1, 4] was 2 and the Transformation frequency [1, 4] was 1%.

In the case of `COc1cc(C(C)=O)cc(OC)c1O` [acetosyringone, 3,5-dimethoxy-4-hydroxyacetophenone], the “effect of pre-treatment on transformation frequency” value [2] is reported as “Enhancement of transformation frequency”, the “Number of PAT-positive lines” value [1, 4] is reported as 2 and the Transformation frequency [1, 4] is reported as 1%. For the same molecule, the “Approximate mean transformation frequency with pretreatment” value ([1]; Agrobacterium strain A3533) was 0.8%, the “Approximate mean transformation frequency with pretreatment” value ([1]; Agrobacterium strain A3637) was 0.8% and the “Approximate mean transformation frequency with pretreatment” value ([1]; Agrobacterium strain A3638) was 0.9%. For the same molecule, the “low concentration still giving a good effect on transformation efficiency” value ([1]; pretreatment medium) was “approximately 25 μM”, the “optimal concentration in the medium” value ([1]; pretreatment medium) was “approximately 200 μM” and the PAT-positive lines ([1]; strain A3460, about 1700 pre-treated callus fragments) was 5. For the same molecule, the Transformation frequency ([1]; strain A3532, 5 days on 100 μM acetosyringone) was less than 0.1%, the PAT-positive lines [1, 5] was 1 and the frequency [1, 5] was “about 1%”. For the same molecule, the “shoot-regenerating lines on PPT containing media” value [1, 5] was 2, the PAT-positive plant lines ([1]; strain A3533) was 30 and the PAT-positive plant lines ([1]; strain A3637) was 33. For the same molecule, the PAT-positive plant lines ([1]; strain A3638) was 37, the average transformation frequencies ([1]; strains A3638, A3533 and A3637, about 4000 pre-treated callus fragments each) was “about 1%” and the “increase in transformation efficiency by pretreatment” value ([1]; versus no pretreatment, co-cultivation with Agrobacterium strains) was “at least three times”. The PAT-positive plants (type I callus from corn; [6]) was 4, the Transformation frequency (type I callus from corn; [6]) was “about 0.75%” and the “transformation frequency relative to callus not pre-treated” value (type I callus from corn; electroporation) was “about three times higher”. For the same molecule, the “effect of pre-treatment on transformation frequency” value [3] was “Enhancement of transformation frequency”.

With `Oc1ccccc1O` [catechol, 1,2-dihydroxybenzene] the “Number of PAT-positive lines” value [1, 4] was 1 and the Transformation frequency [1, 4] was 0.5%.

For `O=C(O)c1cc(O)c(O)c(O)c1` [gallic acid, 3,4,5-trihydroxybenzoic acid], the “Number of PAT-positive lines” value [1, 4] was 3 and the Transformation frequency [1, 4] was 1.5%.

For `O=C(O)c1ccc(O)cc1` [p-hydroxybenzoic acid, 4-hydroxybenzoic acid], the “Number of PAT-positive lines” value [1, 4] was 2 and the Transformation frequency [1, 4] was 1%.

With `COc1cc(C=O)ccc1O` [vanillin, 3-methoxy-4-hydroxybenzaldehyde] the “Number of PAT-positive lines” value [1, 4] was 4 and the Transformation frequency [1, 4] was 2%.
